From ChEMBL document CHEMBL5360657, “Discovery of the TLR7/8 Antagonist MHV370 for Treatment of Systemic Autoimmune Diseases” (ACS Med Chem Lett, 2023)

Key:
[1] = Half life in mouse at 3 mg/kg, iv; format: ADME, organism-based; details: in vivo
[2] = biological target: Toll-like receptor 7 (Mus musculus) (UniProt P58681); experiment: In vivo antagonist activity against TLR7 in mouse assessed as suppression of IFN alpha level at 10 mg/kg, po measured at 3 hrs by LC-MS/MS analysis
Toll-like receptor 7 = biological target: T1, Toll-like receptor 7 (Mus musculus, UniProt P58681); experiment: Antagonist activity at TLR7 in mouse Whole blood cell assessed as reduction in IFN-alpha level measured after 20 hrs by AlphaLISA method; format: tissue-based
T1 sequence (P58681 whole entry): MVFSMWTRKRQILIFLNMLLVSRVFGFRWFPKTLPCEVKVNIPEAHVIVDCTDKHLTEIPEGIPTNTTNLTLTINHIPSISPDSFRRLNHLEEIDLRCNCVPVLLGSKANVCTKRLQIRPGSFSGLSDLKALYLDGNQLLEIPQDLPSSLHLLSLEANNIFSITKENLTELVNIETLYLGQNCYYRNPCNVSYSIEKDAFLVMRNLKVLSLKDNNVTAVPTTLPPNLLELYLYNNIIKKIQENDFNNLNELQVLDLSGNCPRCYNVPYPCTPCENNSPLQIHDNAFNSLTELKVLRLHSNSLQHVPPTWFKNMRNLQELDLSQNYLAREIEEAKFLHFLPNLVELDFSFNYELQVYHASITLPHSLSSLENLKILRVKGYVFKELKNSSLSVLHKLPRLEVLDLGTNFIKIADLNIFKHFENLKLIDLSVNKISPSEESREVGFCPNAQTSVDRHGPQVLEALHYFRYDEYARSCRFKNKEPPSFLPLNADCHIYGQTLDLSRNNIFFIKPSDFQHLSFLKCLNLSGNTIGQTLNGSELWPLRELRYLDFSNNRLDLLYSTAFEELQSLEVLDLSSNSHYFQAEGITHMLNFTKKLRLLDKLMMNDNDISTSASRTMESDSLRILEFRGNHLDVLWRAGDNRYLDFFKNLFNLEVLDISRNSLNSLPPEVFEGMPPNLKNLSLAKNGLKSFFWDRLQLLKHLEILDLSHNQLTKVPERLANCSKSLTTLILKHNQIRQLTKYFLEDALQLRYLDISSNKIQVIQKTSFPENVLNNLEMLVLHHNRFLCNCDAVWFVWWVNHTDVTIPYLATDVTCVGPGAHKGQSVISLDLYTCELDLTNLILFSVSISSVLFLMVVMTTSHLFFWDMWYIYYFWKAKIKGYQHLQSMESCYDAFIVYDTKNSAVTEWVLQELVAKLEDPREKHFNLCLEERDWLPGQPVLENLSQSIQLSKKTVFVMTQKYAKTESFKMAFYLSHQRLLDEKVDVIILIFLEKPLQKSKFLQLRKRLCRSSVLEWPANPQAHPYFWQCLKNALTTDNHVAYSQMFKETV

[3] = biological target: Toll-like receptor 7 (Mus musculus) (UniProt P58681); experiment: In vivo antagonist activity against TLR7 in po dosed mouse assessed as suppression of IL-6 level measured at 3 hrs by LC-MS/MS analysis; details: dose 1-30 mg/kg
[4] = biological target: Toll-like receptor 7 (Mus musculus) (UniProt P58681); experiment: In vivo antagonist activity against TLR7 in po dosed mouse assessed as suppression of IFN alpha level measured at 3 hrs by LC-MS/MS analysis; details: dose 1-30 mg/kg
Toll-like receptor 4 = Toll-like receptor 4 (Homo sapiens, UniProt O00206); experiment: Antagonist activity at TLR4 in human Whole blood cell assessed as reduction in IL-6 level measured after 30 mins; format: tissue-based
[5] = biological target: Toll-like receptor 7 (Mus musculus) (UniProt P58681); experiment: In vivo antagonist activity against TLR7 in mouse assessed as inhibition of TNF level at 10 mg/kg, po measured after 2 hrs by LC-MS/MS analysis relative to control
Toll-like receptor 8 = biological target: T2, Toll-like receptor 8 (Homo sapiens, UniProt Q9NR97); experiment: Antagonist activity at TLR8 in human Whole blood cell […] assessed as reduction in IL-6 level measured after 30 mins; format: tissue-based
T2 sequence (Q9NR97 whole entry): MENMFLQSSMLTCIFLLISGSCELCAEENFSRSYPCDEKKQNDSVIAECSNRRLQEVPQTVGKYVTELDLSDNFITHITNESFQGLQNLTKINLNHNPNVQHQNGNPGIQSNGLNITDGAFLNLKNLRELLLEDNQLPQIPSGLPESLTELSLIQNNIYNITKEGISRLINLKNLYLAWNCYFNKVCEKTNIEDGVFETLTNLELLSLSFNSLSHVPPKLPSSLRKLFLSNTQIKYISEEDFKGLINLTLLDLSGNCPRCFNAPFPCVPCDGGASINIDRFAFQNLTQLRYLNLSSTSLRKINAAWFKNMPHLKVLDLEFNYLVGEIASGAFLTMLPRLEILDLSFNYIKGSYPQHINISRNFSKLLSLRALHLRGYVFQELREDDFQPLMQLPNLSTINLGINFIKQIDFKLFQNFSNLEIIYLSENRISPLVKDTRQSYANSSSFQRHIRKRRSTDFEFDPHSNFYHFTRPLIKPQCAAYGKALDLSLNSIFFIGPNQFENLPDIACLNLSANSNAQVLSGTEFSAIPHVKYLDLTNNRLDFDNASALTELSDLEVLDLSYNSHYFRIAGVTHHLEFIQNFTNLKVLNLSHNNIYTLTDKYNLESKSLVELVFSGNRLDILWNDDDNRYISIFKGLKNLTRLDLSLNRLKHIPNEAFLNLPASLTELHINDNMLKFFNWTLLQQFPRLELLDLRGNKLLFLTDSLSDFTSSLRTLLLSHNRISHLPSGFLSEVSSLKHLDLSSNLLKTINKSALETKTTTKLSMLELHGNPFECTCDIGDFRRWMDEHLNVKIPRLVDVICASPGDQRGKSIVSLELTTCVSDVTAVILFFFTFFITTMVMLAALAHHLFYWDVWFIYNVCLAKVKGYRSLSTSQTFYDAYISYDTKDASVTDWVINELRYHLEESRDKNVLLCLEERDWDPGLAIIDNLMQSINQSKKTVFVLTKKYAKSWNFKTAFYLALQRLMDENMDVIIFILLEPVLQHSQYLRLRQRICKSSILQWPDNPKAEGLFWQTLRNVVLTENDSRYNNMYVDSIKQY

Toll-like receptor 4, sequence (O00206 whole entry): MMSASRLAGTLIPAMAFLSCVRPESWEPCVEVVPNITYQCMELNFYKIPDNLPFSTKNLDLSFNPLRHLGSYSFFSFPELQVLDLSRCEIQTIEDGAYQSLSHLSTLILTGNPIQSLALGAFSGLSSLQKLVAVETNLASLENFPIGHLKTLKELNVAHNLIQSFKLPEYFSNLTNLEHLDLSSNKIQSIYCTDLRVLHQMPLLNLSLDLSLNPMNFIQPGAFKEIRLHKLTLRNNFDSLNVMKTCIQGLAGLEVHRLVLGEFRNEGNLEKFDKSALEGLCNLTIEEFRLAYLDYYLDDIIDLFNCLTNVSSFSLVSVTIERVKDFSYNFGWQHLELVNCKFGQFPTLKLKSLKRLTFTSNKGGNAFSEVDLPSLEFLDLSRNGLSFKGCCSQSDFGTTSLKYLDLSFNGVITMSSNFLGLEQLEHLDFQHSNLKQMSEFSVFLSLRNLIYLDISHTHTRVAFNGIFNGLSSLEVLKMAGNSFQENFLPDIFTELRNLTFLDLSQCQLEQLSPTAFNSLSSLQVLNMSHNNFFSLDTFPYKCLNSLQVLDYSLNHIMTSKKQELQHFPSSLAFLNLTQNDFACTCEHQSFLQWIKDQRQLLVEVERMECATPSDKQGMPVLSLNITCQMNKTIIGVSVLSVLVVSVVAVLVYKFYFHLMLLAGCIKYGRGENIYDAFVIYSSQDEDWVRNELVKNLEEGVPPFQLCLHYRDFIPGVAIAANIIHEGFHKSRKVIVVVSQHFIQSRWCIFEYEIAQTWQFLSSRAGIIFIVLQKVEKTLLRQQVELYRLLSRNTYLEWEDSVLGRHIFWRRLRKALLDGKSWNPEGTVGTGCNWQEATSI

| t1/2 [1] [h] | Structure (SMILES) | Activity [2] [ng/mL] | IC50 (Toll-like receptor 7) [nM] | Activity [3] | Activity [4] | IC50 (Toll-like receptor 4) [nM] | inhibition in vivo at 10 mg/kg [5] [%] | IC50 (Toll-like receptor 8) [nM] |
| --- | --- | --- | --- | --- | --- | --- | --- | --- |
| 2.1 | Cc1cc(N2CCc3c(c(C)nn3CC34CCC(N)(CC3)CC4)C2)c2cnn(C)c2n1 |  |  |  |  |  |  |  |
|  | Cc1cc(N2CCc3c(c(C)nn3CC34CCC(NC(=O)[C@@H]5COCCN5)(CC3)CC4)C2)c2cnn(C)c2n1 [MHV-370] | 550 | 51 | Dose-Dependent Effect | Dose-Dependent Effect | > 10000 | ~100 | 74 |
